Assay results from ChEMBL document CHEMBL1128884, “Selective inhibition of the tyrosine kinase pp60src by analogs of 5,10-dihydropyrimido[4,5-b]quinolin-4(1H)-one” (Bioorg Med Chem Lett, 1995).

Experiments:
[1] = target: Proto-oncogene tyrosine-protein kinase Src (Homo sapiens, UniProt P12931); experiment: Inhibition of cellular oncogene pp60 c-src
[2] = target: cAMP-dependent protein kinase (PKA) (Homo sapiens, UniProt P22694+P17612+P22612); experiment: Inhibition of cAMP-dependent kinase (Protein kinase A); type: protein assay
[3] = target: Epidermal growth factor receptor (Homo sapiens, UniProt P00533); experiment: Inhibition of epidermal growth factor receptor (EGFR)
Sequence of Epidermal growth factor receptor (P00533 whole entry): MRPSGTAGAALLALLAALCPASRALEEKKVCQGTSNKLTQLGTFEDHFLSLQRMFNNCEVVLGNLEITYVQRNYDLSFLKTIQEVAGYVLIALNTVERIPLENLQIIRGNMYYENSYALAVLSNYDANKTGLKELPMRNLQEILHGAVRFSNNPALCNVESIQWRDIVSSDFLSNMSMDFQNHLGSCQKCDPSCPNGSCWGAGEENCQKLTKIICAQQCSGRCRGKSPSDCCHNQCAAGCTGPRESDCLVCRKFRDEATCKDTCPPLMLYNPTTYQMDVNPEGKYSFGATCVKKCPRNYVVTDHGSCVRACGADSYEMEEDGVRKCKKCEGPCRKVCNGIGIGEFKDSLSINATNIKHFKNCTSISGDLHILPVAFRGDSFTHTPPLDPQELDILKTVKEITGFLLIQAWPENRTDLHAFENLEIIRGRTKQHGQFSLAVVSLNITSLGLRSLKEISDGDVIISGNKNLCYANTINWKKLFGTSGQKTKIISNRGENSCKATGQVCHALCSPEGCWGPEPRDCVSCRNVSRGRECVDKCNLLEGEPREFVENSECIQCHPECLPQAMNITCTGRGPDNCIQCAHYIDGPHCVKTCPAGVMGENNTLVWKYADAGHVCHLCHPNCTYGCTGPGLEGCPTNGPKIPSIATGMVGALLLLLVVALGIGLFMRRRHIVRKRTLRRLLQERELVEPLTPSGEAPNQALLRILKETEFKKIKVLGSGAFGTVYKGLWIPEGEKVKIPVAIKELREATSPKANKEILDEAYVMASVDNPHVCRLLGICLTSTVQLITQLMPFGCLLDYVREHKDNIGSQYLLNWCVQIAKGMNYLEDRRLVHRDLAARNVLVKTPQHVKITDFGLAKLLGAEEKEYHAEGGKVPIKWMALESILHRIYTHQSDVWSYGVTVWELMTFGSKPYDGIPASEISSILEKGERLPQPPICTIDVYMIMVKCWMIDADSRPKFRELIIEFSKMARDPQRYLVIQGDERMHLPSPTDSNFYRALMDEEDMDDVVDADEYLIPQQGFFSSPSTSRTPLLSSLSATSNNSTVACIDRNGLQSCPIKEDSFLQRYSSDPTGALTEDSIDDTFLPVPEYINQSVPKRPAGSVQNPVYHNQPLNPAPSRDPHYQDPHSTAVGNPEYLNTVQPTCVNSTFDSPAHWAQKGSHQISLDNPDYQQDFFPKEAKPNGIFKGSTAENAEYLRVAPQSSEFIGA

Sequence of Proto-oncogene tyrosine-protein kinase Src (P12931 2-536 limits assumed): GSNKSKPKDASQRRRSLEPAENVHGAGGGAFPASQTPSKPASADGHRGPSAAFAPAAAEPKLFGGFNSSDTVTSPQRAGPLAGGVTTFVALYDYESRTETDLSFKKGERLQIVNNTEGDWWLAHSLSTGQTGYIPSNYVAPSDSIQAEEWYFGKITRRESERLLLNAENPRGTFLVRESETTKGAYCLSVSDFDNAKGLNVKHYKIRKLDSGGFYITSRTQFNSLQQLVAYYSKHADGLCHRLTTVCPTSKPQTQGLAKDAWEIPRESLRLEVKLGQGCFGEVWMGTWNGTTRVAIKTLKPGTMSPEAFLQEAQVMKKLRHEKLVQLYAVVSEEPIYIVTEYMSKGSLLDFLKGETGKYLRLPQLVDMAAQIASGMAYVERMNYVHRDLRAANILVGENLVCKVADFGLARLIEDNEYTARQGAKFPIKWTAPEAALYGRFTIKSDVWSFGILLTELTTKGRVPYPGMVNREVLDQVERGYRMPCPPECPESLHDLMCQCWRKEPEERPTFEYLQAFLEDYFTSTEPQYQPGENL

| IC50 [1] | IC50 [2] | IC50 [3] | Structure (SMILES) |
| --- | --- | --- | --- |
| 0.5 µM | > 3000 µM |  | COc1ccc2c(c1)Nc1ncnc(O)c1C2 |
| 105 µM | > 1000 µM |  | COc1cc2c(cc1OC)Nc1ncn(CCN3CCOCC3)c(=O)c1C2 |
| 0.5 µM | > 3000 µM | 75 µM | COc1cc2c(cc1OC)Nc1ncnc(O)c1C2 |
| 3.7 µM | > 3000 µM |  | COc1ccc2c(c1)Cc1c(O)ncnc1N2 |
| 1.2 µM | > 3000 µM | 160 µM | COc1cc2c(cc1OC)Nc1ncn(C)c(=O)c1C2 |

The remaining lines, values behind:

| Structure (SMILES) | IC50 [1] | IC50 [2] | IC50 [3] |
| --- | --- | --- | --- |
| Oc1[nH]cnc2nc3ccccc3c1-2 | 293 µM |  |  |
| Oc1ncnc2c1Cc1ccccc1N2 | 9.1 µM | > 3000 µM |  |
| Oc1cc(Nc2ccccc2)ncn1 | 1550 µM | > 4000 µM |  |
| COc1cc2cc3c(O)ncnc3nc2cc1OC | 32 µM | > 750 µM |  |
| CCc1nc(O)c2c(n1)Nc1ccccc1C2 | 38 µM | > 3000 µM |  |
| CCN1c2ccccc2Cc2c(O)ncnc21 | 550 µM | > 960 µM |  |
